This is an account of results in patent publication US4738979A, “α2 -blocking derivatives of imidazole” (G. D. Searle & Co., priority 1985, dated 1988).

Assay [1] has as its system α2 adrenergic receptors of the central nervous system. Put plainly: inhibition of the antihypertensive action of clonidine in spontaneously hypertensive rats (SHR). It is filed as in vivo, rat. Particulars: 1 mg/kg p.o., clonidine 50 μg/kg s.c. How it is done:
In the first study, carried out upon unanaesthetized spontaneously hypertensive rats (SHR rats), the ability of the compounds of the present invention to inhibit the antihypertensive action of clonidine was determined.
The antihypertensive activity of clonidine results from an interaction with α2 adrenergic receptors of the central nervous system, i.e., central antihypertensive actions.
In this test, two groups of SHR rats are utilized as follows. In the first group, prior to subcutaneous administration of clonidine (50 μg/kg), the SHR rats are treated with the compound to be tested (1 mg/kg p.o.) dissolved in a saline vehicle. The second group (control group) of SHR rats are treated with the saline vehicle only, prior to subcutaneous administration of clonidine.
The arterial pressure is measured in the region of the median coccygeal artery according to the method of J. Roba, A. F. DeSchaepdrijver, Exp. Anim., 4, 147-162 (1971).
The results of this assay summarized in Table II, column 5, are expressed as a percentage of inhibition of the effect of clonidine.

In assay [2] the target is T1, α2 -adrenergic receptors (Rattus norvegicus, UniProt P22909).
T1 construct: from tissue; host or cells: rat brain homogenates
T1 sequence (P22909 1-465): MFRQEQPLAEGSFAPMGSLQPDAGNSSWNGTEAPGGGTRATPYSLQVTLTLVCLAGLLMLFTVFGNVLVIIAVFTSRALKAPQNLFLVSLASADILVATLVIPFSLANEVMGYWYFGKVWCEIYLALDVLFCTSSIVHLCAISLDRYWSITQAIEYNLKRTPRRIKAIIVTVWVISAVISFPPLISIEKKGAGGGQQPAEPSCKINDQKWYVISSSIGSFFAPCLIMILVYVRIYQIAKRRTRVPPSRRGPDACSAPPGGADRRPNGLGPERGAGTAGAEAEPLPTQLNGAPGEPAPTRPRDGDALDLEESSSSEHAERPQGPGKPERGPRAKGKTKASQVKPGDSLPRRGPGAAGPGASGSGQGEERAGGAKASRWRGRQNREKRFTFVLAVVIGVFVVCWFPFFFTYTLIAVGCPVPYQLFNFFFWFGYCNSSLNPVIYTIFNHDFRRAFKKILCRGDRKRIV
Put plainly: binding to α2-adrenergic receptors on rat brain homogenates (3H-p. aminoclonidine). Particulars: 10^-7 M; for inhibition at 0.1 µM: rat brain homogenates, 0.7 nM 3H-p. aminoclonidine, read-out: % Inhibition of the Specific Binding at 10^-7 M for α2 Recep.; for affinity for α2 receptors (in words): in vitro binding assay. The method in brief: (§1)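 Rat brain homogenate competition binding: α1 with 1.6 nM ³H-WB 4101, α2 with 0.7 nM ³H-p-aminoclonidine; nonspecific binding defined by 1,000 nM phentolamine. Values are percent inhibition of specific binding at 10^-7 M compound.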

Assay [3] deals with peripheral vascular α2 receptors. Put plainly: inhibition of the pressor effect of BHT 920 in pithed rats. It is filed as in vivo, rat. As to conditions: 1 mg/kg i.v., BHT 920 30 μg/kg i.v. How it is done:
The α2 antagonist activity of the compounds is evaluated by the inhibition of the pressor effect (blood pressure elevation), of a specific α2 agonist agent, 4H-Thiazolo[4,5-b]azetin-2-amine, 5,6,7,8-tetrahydro-6-(2-propenyl)-, dihydrochloride, designated as BHT 920 at a concentration of 30 μg/kg i.v.) according to a method described by J. C. Van Meel et al., J. Pharmacol. Exp. Ther., 219, 760-767 (1981).
The compound to be tested is administered at 1 mg/kg i.v. The ability of the compounds tested to antagonize the pressor effects of BHT 920 is determined and expressed as percentage of inhibition. Any direct hypertensive (=α2 agonist) activity of the compounds under test can likewise be detected.

For assay [4], the system named is α1 -adrenergic receptors. Put plainly: binding to α1-adrenergic receptors on rat brain homogenates (3H-WB 4101). As to conditions: 1.6 nM 3H-WB 4101. The method in brief:
as §1

For `c1ccc(C(Cc2c[nH]cn2)c2ccccc2)cc1` [Compound 1, 4(5)-(2,2-diphenylethyl)-imidazole], the “α2 Antagonist (% Inhibition of the Antihypertension of Clonidine)” value in assay [1] came out at 50%. Also, in assay [2], the inhibition (as a rule, the percentage by which the read-out fell short of the control) at 0.1 µM is 89% and the “affinity for α2 receptors (in words)” value is “high affinity”. Also, the “α2 antagonist activity, inhibition of pressor effect of BHT 920 (in words)” value (shortened to “α2 antagonist activity, inhibition”) in assay [3] is listed as “very active as α2 antagonist agents”. Besides, the “% Inhibition of the Specific Binding at 10^-7 M for α1 Recep.” value (from here on “% Inhibition of the Specific Binding”) in assay [4] was 17%.

Turning to `CC(c1c[nH]cn1)C(c1ccccc1)c1ccccc1` (stereo not drawn) [Compound 4], the “α2 Antagonist (% Inhibition of the Antihypertension of Clonidine)” value in assay [1] was found to be 68%. The inhibition at 0.1 µM in assay [2] was found to be 5%. Further, the “α2 antagonist activity, inhibition” value in assay [3] is recorded as “very active as α2 antagonist agents”. Moreover, the “% Inhibition of the Specific Binding” value in assay [4] was 4%.

On to `Cc1cccc(C(Cc2c[nH]cn2)c2ccccc2)c1` (stereo not drawn) [Compound 9, 4(5)-{[2-(3-methylphenyl)-2-phenyl]ethyl}imidazole], for which the “α2 Antagonist (% Inhibition of the Antihypertension of Clonidine)” value in assay [1] came to 92%. Moreover, in assay [2], the inhibition at 0.1 µM was determined as 85% and the “affinity for α2 receptors (in words)” value was “high affinity”. The “α2 antagonist activity, inhibition” value in assay [3] is on record as “very active as α2 antagonist agents”. Moreover, the “% Inhibition of the Specific Binding” value in assay [4] was determined as 4%.

Turning to `Cc1ccccc1C(Cc1c[nH]cn1)c1ccccc1` (stereo not drawn) [Compound 12], the “α2 Antagonist (% Inhibition of the Antihypertension of Clonidine)” value in assay [1] came out at 78%. Moreover, in assay [2], the inhibition at 0.1 µM is 71%. The “α2 antagonist activity, inhibition” value in assay [3] is “very active as α2 antagonist agents”. The “% Inhibition of the Specific Binding” value in assay [4] is listed as 0%.

Take `Clc1ccccc1C(Cc1c[nH]cn1)c1ccccc1` (stereo not drawn) [Compound 13, 4(5)-{[2-(2-chlorophenyl)-2-phenyl]ethyl}imidazole]: the “α2 Antagonist (% Inhibition of the Antihypertension of Clonidine)” value in assay [1] was found to be 46%. In addition, in assay [2], the inhibition at 0.1 µM was determined as 81% and the “affinity for α2 receptors (in words)” value is “high affinity”. Also, the “α2 antagonist activity, inhibition” value in assay [3] was “very active as α2 antagonist agents”. Also, in assay [4], the “% Inhibition of the Specific Binding” value came to 7%.

With `Fc1ccc(C(Cc2c[nH]cn2)c2ccccc2)cc1` (stereo not drawn) [Compound 14, 4(5)-{[2-(4-fluorophenyl)-2-phenyl]ethyl}imidazole], the “α2 Antagonist (% Inhibition of the Antihypertension of Clonidine)” value in assay [1] is listed as 82%. Besides, the inhibition at 0.1 µM in assay [2] was determined as 69%. The “α2 antagonist activity, inhibition” value in assay [3] is “very active as α2 antagonist agents”. Besides, the “% Inhibition of the Specific Binding” value in assay [4] was 0%.

With `Fc1ccc(C(Cc2c[nH]cn2)c2ccccc2F)cc1` (stereo not drawn) [Compound 15, 4(5)-{[2-(2-fluorophenyl)-2-(4'-fluorophenyl)]ethyl}imidazole], in assay [1], the “α2 Antagonist (% Inhibition of the Antihypertension of Clonidine)” value was found to be 75%. Moreover, the inhibition at 0.1 µM in assay [2] stood at 77%. For the same compound, the “α2 antagonist activity, inhibition” value in assay [3] was “very active as α2 antagonist agents”. Further, the “% Inhibition of the Specific Binding” value in assay [4] is recorded as 7%.

In the case of `Cc1ccc(C)c(C(Cc2c[nH]cn2)c2ccccc2)c1` (stereo not drawn) [Compound 16], the “α2 Antagonist (% Inhibition of the Antihypertension of Clonidine)” value in assay [1] turned out to be 69%. Also, in assay [2], the inhibition at 0.1 µM worked out at 31%. In addition, the “% Inhibition of the Specific Binding” value in assay [4] worked out at 0%.

Consider `COc1ccc(C(Cc2c[nH]cn2)c2ccccc2)cc1` (stereo not drawn) [Compound 17, 4(5)-{[2-(4-methoxyphenyl)-2-phenyl]ethyl}imidazole], for which the “α2 Antagonist (% Inhibition of the Antihypertension of Clonidine)” value in assay [1] worked out at 26%. In assay [2], the inhibition at 0.1 µM came to 78%. Besides, in assay [3], the “α2 antagonist activity, inhibition” value is listed as “very active as α2 antagonist agents”. In assay [4], the “% Inhibition of the Specific Binding” value was 6%.

Regarding `Cc1ccc(C(Cc2c[nH]cn2)c2ccccc2)cc1` (stereo not drawn) [Compound 21], in assay [1], the “α2 Antagonist (% Inhibition of the Antihypertension of Clonidine)” value is listed as 48%. Moreover, the inhibition at 0.1 µM in assay [2] stood at 74%. Also, the “α2 antagonist activity, inhibition” value in assay [3] was “very active as α2 antagonist agents”. Besides, in assay [4], the “% Inhibition of the Specific Binding” value was 4%.
